What was measured:
human CaSR = molecular target: T1, human CaSR (Homo sapiens, UniProt P41180); test: Functional whole cell assay (modulation of human CaSR), IP1 accumulation in CHO-K1 cells; format: cell-based; conditions: CHO-K1 cells stably expressing human CaSR, final Ca2+ 1.9 mM, IP1 readout; concentration giving 50% of maximum agonistic response
T1 construct: The ORF coding for the human CaSR (genebank: NM_000388)
T1 sequence (P41180 20-1078): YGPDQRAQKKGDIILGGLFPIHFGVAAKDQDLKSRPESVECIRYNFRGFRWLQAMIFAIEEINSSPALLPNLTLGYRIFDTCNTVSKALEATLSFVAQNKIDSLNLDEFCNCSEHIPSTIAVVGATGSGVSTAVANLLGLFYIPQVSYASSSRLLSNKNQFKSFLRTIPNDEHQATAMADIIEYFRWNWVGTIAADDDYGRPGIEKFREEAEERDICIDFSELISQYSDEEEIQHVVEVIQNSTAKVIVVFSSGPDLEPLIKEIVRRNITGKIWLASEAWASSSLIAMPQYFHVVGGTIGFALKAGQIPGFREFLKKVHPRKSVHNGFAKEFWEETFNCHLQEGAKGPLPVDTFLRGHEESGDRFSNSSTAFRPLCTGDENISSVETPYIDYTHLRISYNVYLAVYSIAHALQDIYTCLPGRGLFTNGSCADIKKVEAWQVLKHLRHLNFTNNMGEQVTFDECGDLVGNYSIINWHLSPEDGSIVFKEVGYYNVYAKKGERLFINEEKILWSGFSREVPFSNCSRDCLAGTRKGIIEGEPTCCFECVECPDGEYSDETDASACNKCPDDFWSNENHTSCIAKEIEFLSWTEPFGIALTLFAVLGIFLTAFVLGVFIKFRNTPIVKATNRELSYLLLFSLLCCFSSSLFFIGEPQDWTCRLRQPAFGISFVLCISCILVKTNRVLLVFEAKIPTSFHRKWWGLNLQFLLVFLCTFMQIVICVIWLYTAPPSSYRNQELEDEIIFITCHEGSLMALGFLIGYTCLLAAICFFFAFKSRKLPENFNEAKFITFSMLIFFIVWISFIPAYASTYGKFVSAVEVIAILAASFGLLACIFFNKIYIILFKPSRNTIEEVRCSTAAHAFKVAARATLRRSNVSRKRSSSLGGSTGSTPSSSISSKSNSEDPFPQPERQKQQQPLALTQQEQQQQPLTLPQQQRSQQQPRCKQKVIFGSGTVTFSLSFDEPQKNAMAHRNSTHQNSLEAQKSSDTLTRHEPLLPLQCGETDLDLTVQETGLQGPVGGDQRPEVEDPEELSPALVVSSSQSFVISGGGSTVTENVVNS
From the text: The assay investigates a compound's functional ability to act as a biological positive modulator on the human CaSR. Activation of the receptor expressed on CHO-K1 cells is detected through the G alpha q pathway, the activation of phospholipase C and the accumulation of intracellular inositol phosphate (IP) as described earlier [Sandrine Ferry, Bruno Chatel, Robert H. Dodd, Christine Lair, Danielle Gully, Jean-Pierre Maffrand, and Martial Ruat. Effects of Divalent Cations and of a Calcimimetic on Adrenocorticotropic Hormone Release in Pituitary Tumor Cells. Biochemical and biophysical research Communications 238, 866-873 (1997)]. The human CaSR is stably expressed on a CHO-K1 cell clone, stimulated with a basal level of calcium and challenged with the tested compound. The level of IP1 is determined using the IP-One Terbium htrf kit (Cisbio, France). CHO-K1 cells not transfected with the CaSR fail to elicit an IP1 response upon calcium and/or compound stimulation.
The ORF coding for the human CaSR (genebank: NM_000388) was acquired from Invitrogen Corp, USA and subsequently cloned into the mammalian expression vector pCDA3.1.
CHO-K1 cells were transfected using Lipofectamine according to manufacturer's protocol (400.000 cells/well were seeded in a 6-well plate and transfected after 24 hours using 2 μg DNA and 5 μl lipofectamine). After another 24 hours the cells were detached, seeded and subjected to 1 mg/ml of G-418. Following 7 days growth single clones were picked, the CaSR expression evaluated using the 5C10 antibody against CaSR, the clones with the highest expression were selected and tested for functional response. The preferred clone was cultured according to standard procedures described in ATCC (American Type Culture Collection) protocols for CHO-K1 with the addition of 500 μg/ml G-418.
On the assay day, cells were thawed, harvested and resuspended to 4*10^6 cells/ml in stimulation buffer (containing: Hepes 10 mM, MgCl2 0.5 mM, KCl 4.2 mM, NaCl 146 mM, glucose 5.5 mM, LiCl 50 mM, BSA 0.5% at pH 7.4). Ten μl cell solution was pipetted into wells of a white 384-well plate (Perkin Elmer Optiplate) containing 2 μl compound diluted in assay buffer (containing: Hepes 10 mM, MgCl2 0.5 mM, KCl 4.2 mM, NaCl 146 mM, glucose 5.5 mM, LiCl 50 mM, CaCl2 11.4 mM at pH 7.4), resulting in a final Ca^2+ concentration of 1.9 mM. After compound stimulation for 1 hour at 37° C. and 15 min at room temperature, 10 ul of IP-One assay detection reagent (prepared as described by the IP-One assay kit manufacturer) was added and the plate was incubated for another 1 hour at room temperature. Finally the plate was read using a Perkin Elmer EnVision, according to the protocol supplied by the IP-One assay kit manufacturer. The FRET ratio was calculated by dividing the 665 nm emission signal with that of the 615 nm.
The molar concentration of a compound that produces 50% of the maximum agonistic response (the […] value) is calculated according to the equation “General sigmoidal curve with Hill slope, a to d” (Equation 1). This model describes a sigmoidal curve with an adjustable baseline. The equation can be used to fit curves where response is either increasing or decreasing with respect to the independent variable, X.
y=(a−d)/(1+(x/c)̂b)+d Equation 1.
x=concentration of tested compound y=response (%) a=min response as compound concentration approaches 0 d=max response as concentration of tested compound is increasing c=IC50 for the curve b=Hill coefficient or curve slope

[1] = Clearance in human liver microsomes; format: in vitro ADME; conditions: hepatic extraction ratio; 0.5 μM compound, 0.5 mg/mL microsomes, 1 mM NADPH, 30 min
Description: Test compound concentration is 0.5 μM, microsome concentration is 0.5 mg/mL and NADPH concentration is 1 mM in the incubation. The described method is performed by the liquid handling system Tecan RSP and is based on a 96-well format.
Control incubations with test compound without NADPH and test compound without microsomes are conducted to investigate non-CYP mediated metabolism and stability in phosphate buffer at 37° C., respectively.
The human liver microsomal suspension in phosphate buffer is mixed with NADPH. The mixture is pre-heated (7 min) to 37° C. Test compound is added, and the mixture is incubated for 30 minutes. Incubations are run in duplicate. Samples are withdrawn at predetermined stop times and mixed with methanol containing internal standard (IS) to terminate all enzyme activity and precipitate proteins. A control without NADPH (to detect problems such as nonspecific protein binding, heat instability or non-CYP mediated metabolism) and a control without microsomes (for assessing compound stability in the absence of any active enzymes) are tested.
The percentage of organic solvent in the incubations is less than 1%. Careful inspections of reagents are performed prior to the start of any experiment to ensure all reagents are in solution.
The 96-well plates are centrifuged. Test compound depletion, using a compound specific LC/MS/MS method, is determined.
The logarithm of the peak area ratios of test compound to internal standard (IS) versus incubation time is plotted in a graph.
The rate constant (k) (min^−1) of test compound depletion is calculated from the linear part of the curve and the half-time (t1/2) in minutes can be calculated from the rate constant (Eq. 2).
Intrinsic clearance (Clint) (mL/min/mg protein) is calculated from: […]
where c is the microsomal protein concentration in mg/mL.
Intrinsic clearance is the maximum ability of the liver to extract a drug in the absence of blood flow restrictions.
Conversion to apparent clearance (Clapp) (mL/min/kg) is done by Eq. 4:
Clapp=Clint×a×b/d (Eq. 4)
where a, b and d are the scaling factors for normalizing Clint to human body weight.
The following human scaling factors are used:
a: 45 (microsomal protein/liver weight (mg/g)) b: 1500 (liver weight (g)) d: 70 (body weight (kg))
Hepatic clearance (Clh) (mL/min/kg) based on the well-stirred model is described as followed:
Clh=(Clapp·Q)/(Clapp+Q) (Eq. 5)
where Q is the liver blood flow in mL/min/kg (20 in humans).
Dividing hepatic clearance with liver blood flow, the hepatic extraction ratio (%) can be calculated:
Apparent clearance below approximately 10 mL/min/kg human body weight (corresponding to extraction ratio of approx. 33%) is considered as low clearance (high metabolic stability). Apparent intrinsic clearance above approximately 60 mL/min/kg human body weight (corresponding to extraction ratio of approx. 75%) is considered as high clearance (low metabolic stability).

Structure (SMILES) | EC50 (human CaSR) [nM] | Clearance (% Eh) in human liver microsomes [1]
C[C@@H](N[C@H]1CC[C@@H](c2ccc(NCCS(N)(=O)=O)nc2)C1)c1cccc2c1OCO2 [Compound 114, 2-[[5-[(1R,3S)-3-[[(1R)-1-(1,3-Benzodioxol-4-yl)ethyl]amino]cyclopentyl]-2-pyridyl]amino]ethanesulfonamide] | 200 to 1000 | A (A: Eh < 33%)
CCOc1cccc([C@@H](C)N[C@H]2CC[C@@H](c3ccc(N4CCNC(=O)C4)nc3)C2)c1 [Compound 117, 4-[5-[(1R,3S)-3-[[(1R)-1-(3-Ethoxyphenyl)ethyl]amino]cyclopentyl]-2-pyridyl]piperazin-2-one] | 200 to 1000 | A (A: Eh < 33%)
C[C@@H](N[C@H]1CC[C@@H](c2ccc(NCCS(N)(=O)=O)nc2)C1)c1cccc(Cl)c1 [Compound 121, 2-[[5-[(1R,3S)-3-[[(1R)-1-(3-Chlorophenyl)ethyl]amino]cyclopentyl]-2-pyridyl]amino]ethanesulfonamide] | 200 to 1000 | A (A: Eh < 33%)
COc1cc([C@@H](C)N[C@H]2CC[C@@H](c3cnc(NCCNS(C)(=O)=O)nc3)C2)ccc1F [Compound 123, N-[2-[[5-[(1R,3S)-3-[[(1R)-1-(4-Fluoro-3-methoxy-phenyl)ethyl]amino]cyclopentyl]pyrimidin-2-yl]amino]ethyl]methanesulfonamide] | 200 to 1000 | A (A: Eh < 33%)

From patent publication US20130267516A1, “SUBSTITUTED CYCLOPENTYL-AZINES AS CASR-ACTIVE COMPOUNDS” (LEO PHARMA A/S, priority 2010, published 2013)
